Measurements as given in patent US9029369B2, “Aprepitant L-proline composition and cocrystal” (Nuformix Limited, priority 2010, dated 2015).
Like-named read-outs stand apart in the source and are kept apart here.

Key:
[1] = Stability study under accelerated conditions, 40° C./75% RH, examined by XRPD
[2] = Dissolution study, USP Apparatus 2 (paddle), distilled water containing 2.2% SDS; type: physicochemical; settings: 2.2% SDS in purified water
Procedure: Material providing 125 mg of aprepitant was used in each dissolution experiment and in each experiment the test sample was added directly to the dissolution media as a loose powder.
Analysis was carried out by HPLC/UV using an Agilent 1100/1200 series HPLC system with UV variable wavelength detection. Standards were prepared in acetonitrile at 0.14 mg/ml. All standard and sample solutions were filtered through 0.45 μm filters.

[3] = nanoparticulate formulation (marketed capsules, oral); cited from earlier work
[4] = cited from earlier work
[5] = low solubility and low permeability API; cited from earlier work
[6] = 0 mins, 900 ml, 37.0° C., 100 rpm, material providing 125 mg aprepitant, triplicate
[7] = 180 mins (infinity time point), 37.0° C., 100 rpm

| SMILES | mean dissolution value [2, 6] [%] | mean dissolution value ([2]; 1 min, 37.0° C., 100 rpm) | mean dissolution value ([2]; 2 mins, 37.0° C., 100 rpm) [%] | mean dissolution value ([2]; 3 mins, 37.0° C., 100 rpm) [%] | mean dissolution value ([2]; 4 mins, 37.0° C., 100 rpm) [%] | mean dissolution value ([2]; 5 mins, 37.0° C., 100 rpm) [%] | mean dissolution value ([2]; 10 mins, 37.0° C., 100 rpm) [%] | mean dissolution value ([2]; 15 mins, 37.0° C., 100 rpm) [%] | mean dissolution value ([2]; 20 mins, 37.0° C., 100 rpm) [%] | mean dissolution value ([2]; 30 mins, 37.0° C., 100 rpm) [%] | mean dissolution value ([2]; 45 mins, 37.0° C., 100 rpm) [%] | mean dissolution value ([2]; 60 mins, 37.0° C., 100 rpm) [%] | mean dissolution value [2, 7] [%] | further results |
| --- | --- | --- | --- | --- | --- | --- | --- | --- | --- | --- | --- | --- | --- | --- |
| C[C@@H](O[C@H]1OCCN(Cc2n[nH]c(=O)[nH]2)[C@H]1c1ccc(F)cc1)c1cc(C(F)(F)F)cc(C(F)(F)F)c1.O.O=C(O)[C@@H]1CCCN1 | 0.0 | more than 93% | 95.7 | 95.6 | 95.8 | 95.1 | 95.5 | 95.9 | 96.0 | 96.2 | 96.8 | 97.0 | 99.2 | XRPD Characterization ([1]; 1 month): cocrystal; XRPD Characterization ([1]; 1 week): cocrystal; XRPD Characterization ([1]; 2 months): cocrystal; XRPD Characterization ([1]; 2 week): cocrystal; XRPD Characterization ([1]; 3 months): cocrystal; XRPD Characterization ([1]; 3 week): cocrystal; XRPD Characterization ([1]; 6 months): cocrystal; physical stability with respect to dissociation into starting components ([1]; six month period): stable; XRPD Characterization ([1]; time point 0): cocrystal; behaviour once dissolved (re-precipitation of the API) ([2]; up to 180 minutes): remained in solution with no re-precipitation of the API; mean dissolution value ([2]; 1 min, 37.0° C., 100 rpm, listed as 1:1:1 Aprepitant L-proline cocrystal): 93.4% |
| C[C@@H](O[C@H]1OCCN(Cc2nc(=O)[nH][nH]2)[C@H]1c1ccc(F)cc1)c1cc(C(F)(F)F)cc(C(F)(F)F)c1 [Crystalline Aprepitant, reference compound] | 0.0 | 18.5% | 34.4 | 44.2 | 52.2 | 57.6 | 70.1 | 77.2 | 80.4 | 85.4 | 87.3 | 89.3 | 94.6 | mean absolute bioavailability [3]: 60-65%; solubility ([4]; in acetonitrile): slightly soluble; solubility ([4]; in ethanol): sparingly soluble; solubility ([4]; in isopropyl acetate): sparingly soluble; solubility ([4]; in water): practically insoluble; time to achieve the same level of dissolution that the cocrystal achieved within the first minute ([2]; 37.0° C., 100 rpm): ~180 min; BCS class [5]: Class IV |
